Tests used:
[1] = Evaluation of light resistance of ink jet print (xenon fade meter); type: physicochemical; settings: amount of energy required for OD value (about 1.0) to decrease to 70%; ink with 6.0% by weight dye, pH 9.0-9.5 (ammonia), printed on PM Photo Paper; xenon 36 W/m^2 (300 to 400 nm), 24° C., 55% humidity
Excerpt: Preparation of Samples for Test:
An ink, the pH of which was adjusted between 9.0 and 9.5 with ammonia, prepared using the composition shown above was set into an ink jet printer (EM-900C manufactured by Seiko Epson Corp.). A piece of paper specially designed for ink jet (PM Photo Paper (Model: KA420PSK) manufactured by Seiko Epson Corp.) was printed with the ink, and it was used as a sample to be tested.
Light irradiation: The sample to be tested was set to a holder. Light irradiation with a xenon fade meter was carried out under the following condition:
Method for evaluation: The sample is taken out after each irradiation of an energy of 3000 kJ/m^2, and a part with an optical density (OD value) of about 1.0 is measured with a Macbeth density meter. The total amount of light irradiated at the time when the OD value has become 70% the original value is calculated.
Criterion for evaluation: The amount of energy required for the OD value to decrease to 70%.

Solubility in water = type: physicochemical; settings: under an ammoniacal alkaline condition
[2] = Mutagenicity test (Ames test)

| SMILES | Evaluation of light resistance [1] | further results |
| --- | --- | --- |
| CCOc1ccc(N=Nc2c(S(=O)(=O)O)cc3ccc(N=Nc4cc(S(=O)(=O)O)c5cc(S(=O)(=O)O)c(N=Nc6ccccc6C(=O)O)c(O)c5c4N)cc3c2O)cc1 [Trisazo compound (5)] | ⊚ (Not less than 70,000 kJ/m^2) | – |
| Nc1c(N=Nc2ccc3cc(S(=O)(=O)O)c(N=Nc4ccccc4C(=O)O)c(O)c3c2)cc(S(=O)(=O)O)c2cc(S(=O)(=O)O)c(N=Nc3cc(C(=O)O)ccc3C(=O)O)c(O)c12 [Trisazo compound (8)] | ⊚ (Not less than 70,000 kJ/m^2) | – |
| COc1ccc(N=Nc2c(S(=O)(=O)O)cc3c(S(=O)(=O)O)cc(N=Nc4ccc5cc(S(=O)(=O)O)c(N=Nc6cc(Cl)ccc6C(=O)O)c(O)c5c4)c(N)c3c2O)c(S(=O)(=O)O)c1 [Trisazo compound (6)] | ◯ | – |
| Cc1cc(-c2ccc(N=Nc3c(S(=O)(=O)O)cc4cc(S(=O)(=O)O)c(N=Nc5ccccc5)c(O)c4c3N)c(C)c2)ccc1N=Nc1ccc(N)cc1N [C. I. Direct Black 154, reference compound] | × | – |
| Nc1cc(O)ccc1N=Nc1ccc(Nc2ccc(N=Nc3c(S(=O)(=O)O)cc4cc(S(=O)(=O)O)c(N=Nc5ccccc5)c(O)c4c3N)cc2S(=O)(=O)O)cc1 [C. I. Direct Black 168, reference compound] | Δ (Not less than 10,000 kJ/m^2 and less than 40,000 kJ/m^2) | – |

More lines, main results first:

| Evaluation of light resistance [1] | SMILES | further results |
| --- | --- | --- |
| ◯ | Nc1c(N=Nc2ccc3cc(S(=O)(=O)O)c(N=Nc4cccc(C(=O)O)c4)c(O)c3c2)cc(S(=O)(=O)O)c2cc(S(=O)(=O)O)c(N=Nc3ccccc3C(=O)O)c(O)c12 [Trisazo compound (11)] | – |
| ⊚ (Not less than 70,000 kJ/m^2) | Nc1c(N=Nc2ccc3c(O)c(N=Nc4ccccc4C(=O)O)c(S(=O)(=O)O)cc3c2)cc(S(=O)(=O)O)c2cc(S(=O)(=O)O)c(N=Nc3ccccc3C(=O)O)c(O)c12 [Trisazo compound (2)] | – |
| ⊚ (Not less than 70,000 kJ/m^2) | Nc1c(N=Nc2ccccc2C(=O)O)cc(S(=O)(=O)O)c2cc(S(=O)(=O)O)c(/N=N\c3ccc4cc(S(=O)(=O)O)c(N=Nc5ccccc5C(=O)O)c(O)c4c3)c(O)c12 [Trisazo compound (14)] | – |
| ⊚ (Not less than 70,000 kJ/m^2) | Nc1c(N=Nc2ccc3cc(S(=O)(=O)O)c(N=Nc4ccccc4C(=O)O)c(O)c3c2)cc(S(=O)(=O)O)c2cc(S(=O)(=O)O)c(N=Nc3ccccc3C(=O)O)c(O)c12 [Trisazo compound (1)] | solubility in water (Solubility in water): 14%; mutagenicity test (Ames test), ratio [2]: 1.27 times; result of mutagenicity test (Ames test) [2]: negative |
